In PMC6271717, “Chemical Composition, Biological and Cytotoxic Activities of Plant Extracts and Compounds Isolated from Ferula lutea” (Molecules, 2014):
≈ marks a conversion by molar mass, not a printed value.

Experiments:
[1] = tested on: Candida parapsilosis ATCC 22019; assay: Anticandida activity, broth microdilution; format: cell-based; conditions: Lodderomyces parapsilosis, ATCC22019; positive control
Procedure: (§1) The test microorganisms included the following Gram-positive bacteria: Staphylococcus aureus ATCC 25923, Enterococcus faecalis ATCC 29212; Gram-negative bacteria: Escherichia coli ATCC 25922 and Pseudomonas aeruginosa ATCC 27853 and four Candida yeasts: Candida albicans ATCC 90028, C. glabrata ATCC 90030, C. kreusei ATCC 6258 and C. parapsilosis ATCC 22019).
(§2) The MIC values for the antibacterial and anticandidal screening were determined with the broth dilution method (microdilution using 96-well microplates) following the procedure described by Cintia et al. [35]. Briefly, all samples were prepared at a concentration of 10 mg/mL by dissolution of the extracts in 10% DMSO. The final concentrations of the plant samples tested ranged from 40 to 2 × 10^4 µg/mL. The MIC of each sample was defined as the lowest concentration of oil that inhibited either the bacterial or candidal growth, after incubation at 37 °C for 18 to 24 h. The MBC and the MFC were determined by subculture on blood agar at 37 °C for 18 to 24 h. Thymol and gentamicin or thymol and amphotericin B were used as positive controls against the bacterial or candidal strains, respectively. […] All tests were performed in triplicate.

[2] = tested on: Candida albicans ATCC 90028; assay: Anticandida activity, broth microdilution; format: cell-based; conditions: ATCC90028, positive control
Procedure: as §1, §2

[3] = tested on: Candida glabrata ATCC 90030; assay: Anticandida activity, broth microdilution; format: cell-based; conditions: Nakaseomyces glabratus, ATCC90030; positive control
Procedure: as §1, §2

[4] = tested on: Candida kreseui ATCC 6258; assay: Anticandida activity, broth microdilution; format: cell-based; conditions: ATCC6258, positive control
Procedure: as §2

[5] = tested on: human chronic myelogenous leukaemia cell line K562; assay: Cytotoxic activity (MTT assay); format: cell-based; conditions: K562, 72 h
Procedure: Cytotoxic activity of extracts against the human chronic myelogenous leukaemia cell line K562 was estimated by the 3-(4,5-dimethylthiazol-2-yl)-2,5-diphenyltetrazolium bromide (MTT) assay of Khlifi et al.. The cells were grown in RPMI- 1640 medium supplemented with 10% faetal calf serum (Gibco, Gaithersburg, MD, USA), air and 5% CO2. The resulting blue formazan product can be measured spectrophotometrically. The MTT colorimetric assay was performed in 96-well plates. […] human chronic myelogenous leukaemia K562 cells were seeded in a 96-well plate at a concentration of 10^4 cells/well and incubated at 37 °C overnight in a 5% CO2 enriched atmosphere. Cells in exponential growth phase were incubated at 37 °C for 72 h with each tested compound at concentrations ranging from 3.12 to 400 μg/mL. After that, the medium was removed and cells were treated with MTT solution (100 μL, 0.2 mg/mL in PBS) at 37 °C for 2 h. MTT solution was then discarded and DMSO (500 μL) was added to dissolve insoluble formazan crystals. Optical density was measured at 540 nm. Each extract concentration was tested in triplicate. Doxorubicin was used as positive control.

[6] = tested on: Staphylococcus aureus ATCC 25923; assay: Antibacterial activity, broth microdilution; format: cell-based; conditions: ATCC25923, positive control
Procedure: as §2

[7] = tested on: Pseudomonas aeruginosa ATCC 27853; assay: Antibacterial activity, broth microdilution; format: cell-based; conditions: ATCC27853, positive control
Procedure: as §1, §2

[8] = tested on: Escherichia coli ATCC 25922; assay: Antibacterial activity, broth microdilution; format: cell-based; conditions: ATCC25922, positive control
Procedure: as §1, §2

[9] = tested on: Enterococcus faecalis ATCC 29212; assay: Antibacterial activity, broth microdilution; format: cell-based; conditions: ATCC29212, positive control
Procedure: as §2

[10] = Antioxidant activity by ABTS assay
Procedure: ABTS was dissolved in water to a 7 mM concentration and the ABTS radical cation was produced by adding potassium persulfate to a final concentration of 2.45 mM [31]. The radical generation was completed in the dark at room temperature for 12 h. This solution was then diluted with methanol to adjust its absorbance at 734 nm to 0.706 ± 0.009. To determine the scavenging activity, 1 mL of diluted ABTS^+. solution was added to 1 mL of methanolic solutions of extract at different concentrations and the absorbance at 734 nm was measured 10 min after the initial mixing, using methanol as the blank. The percentage of inhibition was calculated by the equation: [(Acontrol − Asample)/Acontrol] × 100 (2) where Acontrol is the absorbance of the control reaction containing all reagents except the tested sample, and Asample is the absorbance of the test compound. Tests were carried out in triplicate. Ascorbic acid was used as the positive control. The IC50 was calculated using linear relation between the compound concentration and probability of the percentage of ABTS inhibition.

[11] = Antioxidant activity by DPPH assay
Procedure: Diluted methanol solutions of the samples at different concentrations (1 mL each) were mixed with 1 mL of a freshly prepared (80 µg/mL) methanol solution of DPPH. The resulted solution was incubated at 37 °C for 30 min after what the absorbance of the solution was measured at 517 nm. Lower absorbance of the reaction mixture indicates higher free radical scavenging activity. Tests were carried out in triplicate. Decrease in absorption induced by the tested sample was compared to that of the positive control ascorbic acid. The capability to scavenge the DPPH^.radical was calculated using the following equation: Inhibition ratio (DPPH^. scavenging effect) (%) = [(Acontrol − Asample) / Acontrol] × 100 (1)
The IC50 was calculated using the linear relation between the compound concentration and the probability of the percentage of DPPH inhibition.

SMILES: C[C@@H]1[C@H](O)[C@@H](C)/C=C/C=C/C=C/C=C/C=C/C=C/C=C/[C@H](O[C@@H]2O[C@H](C)[C@@H](O)[C@H](N)[C@@H]2O)C[C@@H]2O[C@](O)(C[C@@H](O)C[C@@H](O)[C@H](O)CC[C@@H](O)C[C@@H](O)CC(=O)O[C@H]1C)C[C@H](O)[C@H]2C(=O)O [Amphotericin B]
- MFC [1]: 0.5 µg/mL (≈ 0.541 µM)
- MFC [2]: 0.5 µg/mL (≈ 0.541 µM)
- MFC [3]: 0.5 µg/mL (≈ 0.541 µM)
- MFC [4]: 0.5 µg/mL (≈ 0.541 µM)

SMILES: COc1cccc2c1C(=O)c1c(O)c3c(c(O)c1C2=O)C[C@@](O)(C(=O)CO)C[C@@H]3O[C@H]1C[C@H](N)[C@H](O)[C@H](C)O1 [Doxorubicin]
- IC50 [5]: 0.1 µg/mL (≈ 0.184 µM)

SMILES: CNC(C)C1CCC(N)C(OC2C(N)CC(N)C(OC3OCC(C)(O)C(NC)C3O)C2O)O1 (stereo not shown) [Gentamecin, gentamicin]
- MBC [6]: 0.15 µg/mL (≈ 0.314 µM)
- MBC [7]: 0.5 µg/mL (≈ 1.05 µM)
- MBC [8]: 0.01 µg/mL (≈ 0.0209 µM)
- MBC [9]: 0.01 µg/mL (≈ 0.0209 µM)

SMILES: Cc1ccc(C(C)C)c(O)c1 [Thymol]
- MIC [1]: 0.32 µg/mL (≈ 2.13 µM)
- MIC [2]: 0.13 µg/mL (≈ 0.865 µM)
- MIC [6]: 0.2 µg/mL (≈ 1.33 µM)
- MIC [3]: 0.16 µg/mL (≈ 1.07 µM)
- MIC [7]: 1 µg/mL (≈ 6.66 µM)
- MIC [8]: 0.25 µg/mL (≈ 1.66 µM)
- MIC [4]: 0.32 µg/mL (≈ 2.13 µM)
- MIC [9]: 0.6 µg/mL (≈ 3.99 µM)

SMILES: O=C1O[C@H]([C@@H](O)CO)C(O)=C1O [Vitamin C, L-ascorbic acid]
- ABTS+ Assay IC50 [10]: 4.1 ± 0.1 µg/mL
- DPPH Assay IC50 [11]: 4.4 ± 0.1 µg/mL
